In ChEMBL document CHEMBL1124028, “Synthesis and antiviral activity of various 3'-azido analogues of pyrimidine deoxyribonucleosides against human immunodeficiency virus (HIV-1, HTLV-III/LAV)” (J Med Chem, 1988) one finds EC50 data, which are given here for 22 molecules.

The subject of the test is Human immunodeficiency virus 1. Kind of test: Inhibition of HIV-1 replication in human peripheral blood mononuclear cells. Type of test: functional, organism-based.
In the case of `CCOc1cn([C@H]2C[C@H](N=[N+]=[N-])[C@@H](CO)O2)c(=O)[nH]c1=O`, a half-maximal response (EC50) required 54 µM.

In turn, `[N-]=[N+]=N[C@H]1C[C@H](n2cc(N)c(=O)[nH]c2=O)O[C@@H]1CO` yielded an EC50 of 6.2 µM.

The molecule `[N-]=[N+]=N[C@H]1C[C@H](n2ccc(=O)[nH]c2=O)O[C@@H]1CO` [NAVURIDINE] registered an EC50 of 0.2 µM. With `Cc1cn([C@H]2C[C@H](N=[N+]=[N-])[C@@H](CO)O2)c(=O)n(/C=C/C=O)c1=O` the figure was 0.01 µM.

`[N-]=[N+]=N[C@H]1C[C@H](n2ccc(N)nc2=O)O[C@@H]1CO` had an EC50 of 1.2 µM.

In the case of `CN(C)c1cn([C@H]2C[C@H](N=[N+]=[N-])[C@@H](CO)O2)c(=O)[nH]c1=O`, the EC50 is greater than 100 µM. With `N#CCOc1cn([C@H]2C[C@H](N=[N+]=[N-])[C@@H](CO)O2)c(=O)[nH]c1=O` the figure was 16 µM; with `CNc1cn([C@H]2C[C@H](N=[N+]=[N-])[C@@H](CO)O2)c(=O)[nH]c1=O`, greater than 100 µM.

`C#CCOc1cn([C@H]2C[C@H](N=[N+]=[N-])[C@@H](CO)O2)c(=O)[nH]c1=O`: the EC50 came out at 38 µM.

The molecule `Cc1nn([C@H]2C[C@H](N=[N+]=[N-])[C@@H](CO)O2)c(=O)[nH]c1=O` came in with an EC50 greater than 100 µM. The same measure for `Cc1cn([C@H]2C[C@H](N=[N+]=[N-])[C@@H](CO)O2)c(=O)nc1N`: 5.1 µM. For the molecule `N#CSc1cn([C@H]2C[C@H](N=[N+]=[N-])[C@@H](CO)O2)c(=O)[nH]c1=O`, the EC50 stood at 5.1 µM. The molecule `C=CCOc1cn([C@H]2C[C@H](N=[N+]=[N-])[C@@H](CO)O2)c(=O)[nH]c1=O` came in with an EC50 greater than 100 µM. Molecule `[N-]=[N+]=N[C@@H]1CC(n2cc(I)c(=O)[nH]c2=O)O[C@@H]1CO` (some centres not stated) gave an EC50 of 1.1 µM. With `[N-]=[N+]=N[C@H]1C[C@H](n2cc(C(F)(F)F)c(=O)[nH]c2=O)O[C@@H]1CO` the figure was greater than 100 µM. As to `[N-]=[N+]=N[C@H]1C[C@H](n2cc(O)c(=O)[nH]c2=O)O[C@@H]1CO`, the EC50 is roughly 10 µM. The same measure for `[N-]=[N+]=N[C@H]1C[C@H](n2cc(F)c(N)nc2=O)O[C@@H]1CO`: 1 µM; for `CSc1cn([C@H]2C[C@H](N=[N+]=[N-])[C@@H](CO)O2)c(=O)[nH]c1=O`: greater than 100 µM. The same measure for `Cc1cn([C@H]2C[C@H](N=[N+]=[N-])[C@@H](CO)O2)c(=O)[nH]c1=O` [ZIDOVUDINE]: 0.002 µM. The molecule `[N-]=[N+]=N[C@H]1C[C@H](n2cc(F)c(=O)[nH]c2=O)O[C@@H]1CO` displayed an EC50 of 4.8 µM. `[N-]=[N+]=N[C@H]1C[C@H](n2cc(Br)c(=O)[nH]c2=O)O[C@@H]1CO` yielded an EC50 of 1 µM. With `COc1cn([C@H]2C[C@H](N=[N+]=[N-])[C@@H](CO)O2)c(=O)[nH]c1=O` the figure was 70 µM.

The EC50 is the concentration that produces a half-maximal response.
